Tests used:
[1] = system: rats with surgical manipulation of the intestine; assay: Rat in vivo gastrointestinal transit of fluorescein-labeled dextran (geometric center)
Protocol: (§1) Age matched animals treated with vehicle (normal saline) or valine (263.5 mg/kg, osmotic control) at appropriate time points and at equal volumes served as controls.
(§2) The rodent intestine was subjected to a standardized degree of surgical manipulation as described previously (14). Rats were anesthetized by isoflurane inhalation and the abdomen was opened by a midline laparotomy. The cecum was eventrated and laid out onto a moist gauze. Then, the intestine was inspected along its length and gently compressed using moist cotton applicators. The midline incision was closed by two layers of continuous sutures. All operative procedures were performed under sterile conditions with the intestine being handled only by instruments and never touched directly. Animals were killed at specific time points postoperatively by isoflurane anesthesia inhalation overdose and heart incision.
(§3) Methods: ACI-rats (180-220 g) underwent standardized surgical manipulation of the intestine. […] Age matched animals treated with vehicle or valine (osmotic control) at appropriate time points and at equal volumes served as controls. […] Postoperative mediator mRNA expression in the intestinal muscularis was determined by real-time RT PCR. Leukocyte extravasation was investigated in muscularis whole-mounts. Nitrite production was measured in muscularis cultures. In vivo transit of FITC-dextran was measured using geometric center analysis (GC). In vitro circular muscle contractility was assessed in a standard organ bath. Statistical analysis: unpaired Student t test, p<0.05, mean±SEM.

[2] = system: jejunal circular smooth muscle; assay: In vitro bethanechol stimulated contractile activity of jejunal circular muscle strips; format: in vivo, rat; settings: for mean contractile force, bethanechol stimulated: manipulated rats, 100 mM bethanechol, control 3.2±0.2, SM vehicle 1.9±0.1
Protocol: as §1, §2
Mechanical in vitro activity of the rat mid-jejunum was evaluated at 24 hours postoperatively using smooth muscle strips of the circular muscularis as described previously (rats: N=5-11) (14). After dissection and a 30 minute equilibration period, the individual muscles were incrementally stretched to L0. Then after recording spontaneous contractility for 30 minutes, dose response curves were generated using increasing concentrations of the muscarinic agonist bethanechol ([…]) for 10 minutes and intervening wash periods (KRB) of 10 minutes. The contractile response was recorded and analyzed as g/mm2/sec over a 10 minute period.
as §3

IL-6 mRNA = assay: Real-time RT-PCR of muscularis IL-6 mRNA 3 hours postoperatively; format: in vivo, rat
Protocol: as §1, §2
(§4) mRNA Expression Analysis: Postoperative mediator mRNA expressions in the small intestinal muscularis were analyzed using SYBR Green two-step real-time RT-PCR as previously described, (N=4-6). […] Total mRNA extraction was performed using the guanidium-thiocyanate phenol-chloroform extraction method. Equal aliquots (200 ng) of total RNA from each sample, quantified by spectrophotometer, were processed for complimentary DNA (cDNA) synthesis. Primer sequences were used as described previously (tumor necrosis factor-a, TNF-a) (35), or designed according to published sequences 36-41, (GenBank accession numbers: NM_017008 [glyceraldehyde phosphate dehydrogenase (GAPDH)], AF233596 [cyclo-oxygenase-2 (COX-2)], NM_012967 [intercellular adhesion molecule-1 (ICAM-1)], M26744 [interleukin-6 (IL-6)] and NM_012611 [inducible nitric oxide synthase (iNOS)]), using Primer Express software (PE Applied Biosystems, Foster City, Calif.) and purchased from Life Technologies (Rockville, Md.). GAPDH was used as an endogenous control. The efficiency and equality of the real-time PCR primer pairs were determined by amplifying serial dilutions of muscularis cDNA. For each target gene different MgCl2 (3 to 5 mM) concentrations were tested to optimize the PCR amplification. […] Relative quantification was performed using the comparative CT method as described by Schmittgen et al. (42).
Methods: ACI-rats (180-220 g) underwent standardized surgical manipulation of the intestine. […] Postoperative mediator mRNA expression in the intestinal muscularis was determined by real-time RT PCR. […] Nitrite production was measured in muscularis cultures. In vivo transit of FITC-dextran was measured using geometric center analysis (GC). In vitro circular muscle contractility was assessed in a standard organ bath. […]

ICAM-1 mRNA = settings: 3 hours postoperatively
Protocol: as §1, §2
as §4, with “amplification. Agarose gel electrophoretic analysis was used to verify the presence of a single product and that the amplified product corresponded to size predicted for the amplicon. The PCR reaction mixture was prepared using the SYBR Green PCR Core Reagents (PE Applied Biosystems, Foster City, Calif.). PCR conditions on an ABI PRISM 7700 Sequence Detection System (PE Applied Biosystems, Foster City, Calif.) were as recommended by the manufacturer. Each sample was estimated in duplicate.” for “amplification.”
as §3

TNF-α mRNA = settings: 3 hours postoperatively
Protocol: as §1, §2
as §4, with “amplification. Agarose gel electrophoretic analysis was used to verify the presence of a single product and that the amplified product corresponded to size predicted for the amplicon. The PCR reaction mixture was prepared using the SYBR Green PCR Core Reagents (PE Applied Biosystems, Foster City, Calif.). PCR conditions on an ABI PRISM 7700 Sequence Detection System (PE Applied Biosystems, Foster City, Calif.) were as recommended by the manufacturer. Each sample was estimated in duplicate.” for “amplification.”
as §3

iNOS mRNA = settings: 3 hours postoperatively
Protocol: as §1, §2
as §4, with “amplification. Agarose gel electrophoretic analysis was used to verify the presence of a single product and that the amplified product corresponded to size predicted for the amplicon. The PCR reaction mixture was prepared using the SYBR Green PCR Core Reagents (PE Applied Biosystems, Foster City, Calif.). PCR conditions on an ABI PRISM 7700 Sequence Detection System (PE Applied Biosystems, Foster City, Calif.) were as recommended by the manufacturer. Each sample was estimated in duplicate.” for “amplification.”
as §3

COX-2 mRNA = settings: glycine 170 mg/kg, 3 hours postoperatively; SM 3.2-fold; not significant
Protocol: as §1
as §2, with “Animals were killed at specific time points postoperatively by isoflurane anesthesia inhalation overdose and heart incision.” left out
mRNA Expression Analysis: Postoperative mediator mRNA expressions in the small intestinal muscularis were analyzed using SYBR Green two-step real-time RT-PCR as previously described, (N=4-6). […] Equal aliquots (200 ng) of total RNA from each sample, quantified by spectrophotometer, were processed for complimentary DNA (cDNA) synthesis. […] The efficiency and equality of the real-time PCR primer pairs were determined by amplifying serial dilutions of muscularis cDNA. […] Relative quantification was performed using the comparative CT method as described by Schmittgen et al. (42).

[3] = system: C57Bl/6 mice with surgical manipulation (SM); settings: SM+glycine 170 mg/kg, control=11.0±0.44, SM=4.1±0.18, SM+saline=4.1±0.5
Protocol: as §1

[4] = system: interleukins and chemokines
Text: Luminex Multiplex Bead Immunoassays: The release of […] inflammatory analytes into the mouse tissue culture supernatant, obtained as above, was quantified with a Luminex 100™ using microsphere-based multiplexing technology. The mouse cytokine twenty plex immune kit was comprised of analyte specific components for the simultaneous measurement of the following mouse cytokines (FGF-basic, IL-1α, IL-1β, IL-2, IL-4, IL-5, IL-6, IL-10, IL-12p70, IL-13, IL-17, TNF-α, IFN-γ, GM-CSF, KC, MCP-1, MIG, MIP-1α, IP-10 and VEGF) (Invitrogen, Carlsbad, Calif.).

[5] = 170 mg/kg intravenously; cited from earlier work
[6] = Example 5, glycine (170 mg) i.v. 1 hour prior to surgery

NCC(=O)O [glycine]
postoperative intestinal transit [1, 6]: ameliorated
geometric center (GC) of gastrointestinal transit ([1]; surgically manipulated rats, 24 h postoperatively, i.v. pretreatment 1 h before surgery, glycine 170 mg/kg, valine 263.5 mg/kg, SM vehicle GC=5.2±0.7): 8.5±0.7
amelioration of postoperative muscularis contractility [2, 6]: 54%
mean contractile force, bethanechol stimulated ([2]; 85 mg/kg glycine): 2.4±0.3 g/mm2/s
mean contractile force, bethanechol stimulated ([2]; 170 mg/kg glycine or valine pretreatment): 2.9±0.3 g/mm2/s
IL-6 mRNA induction vs non-operated vehicle treated controls (IL-6 mRNA; glycine pretreatment, 3 hours postoperatively, manipulation alone 8521 fold): 2742 fold
mediator mRNA levels in non-operated animals vs non-operated vehicle rats (IL-6 mRNA; non-operated glycine injected rats): did not differ
postoperative induction of IL-6 mRNA (IL-6 mRNA; surgically manipulated rats, 3 hours postoperatively): significantly attenuated
ICAM-1 mRNA induction vs non-operated vehicle treated controls (ICAM-1 mRNA; glycine pretreatment, manipulation alone 21 fold): 14 fold
postoperative induction of ICAM-1 mRNA (ICAM-1 mRNA; surgically manipulated rats): attenuation
TNF-α mRNA induction vs non-operated vehicle treated controls (TNF-α mRNA; glycine pretreatment, manipulation alone 3.4 fold): 1.9 fold
postoperative induction of TNF-α mRNA (TNF-α mRNA; surgically manipulated rats): attenuation
surgical induction of iNOS mRNA (iNOS mRNA; SM vehicle 197.1-fold): significantly suppressed
iNOS mRNA induction vs non-operated vehicle treated controls (iNOS mRNA; glycine pretreatment, manipulation alone 197 fold): 17 fold
COX-2 mRNA postoperative upregulation (COX-2 mRNA): 2.3 fold
geometric center of gastrointestinal transit [3]: 10.3±7
interleukins and chemokines released into organ culture media, colonic muscularis externa ([4]; manipulated colonic muscularis, significance reached by IL-5, IL-6, IL-10, IL-12, KC, MCP-1, MIP1-α and GM-CSF): tended to be quelled
interleukins and chemokines released into organ culture media, jejunal muscularis externa ([4]; manipulated jejunal muscularis, significance reached by IL-6, IP-10 and MIP1-α): tended to be quelled
production of chemokines (IP-10, KC, MCP-1, MIP-1α, VEGF and GM-CSF) ([4]; organ cultured muscularis of jejunum and colon, more dramatic in colon): trend for the inhibition
release of interleukins 5, 6, 10 and 12 ([4]; organ cultured muscularis of jejunum and colon, more pronounced in colon): decrease
increase of glycine serum levels [5]: about sevenfold
